The text below walks through data of US20160229847A1, “NOVEL BICYCLIC PYRIDINONES AS GAMMA-SECRETASE MODULATORS” (PFIZER INC., priority 2013, published 2016).

Structures can show the parent of a compound that is named as a salt. Where two headings read alike, the source gives them in different places.

This experiment deals with γ-secretase (Cricetulus griseus, UniProt G3HNF2). Briefly: Cell-Based γ-Secretase Assay with ELISA Readout (production of amyloid beta protein Aβ(1-42)). The following applies: human WT-APP overexpressing CHO cells, ~24 h incubation, Aβ(1-42) ELISA. A general note: In an ELISA, binding on a coated surface is turned into a signal by an enzyme label.
The mark [1] stands for this setting: read-out: Aβ 42B IC50 (nM) (Geometric Mean of 2-5 Determinations), Table 5, geometric mean of 2-5 determinations.

Experimental: The ability of compounds to modulate production of amyloid beta protein Aβ(1-42) was determined using human WT-APP overexpressing CHO cells. Cells were plated at 22,000 cells/100 μL well in 96 well tissue culture treated, clear plates (Falcon) in DMEM/F12 based medium and incubated for 24 h at 37° C. […] Compounds were added in fresh medium to achieve 1% final DMSO. Appropriate vehicle or inhibitor controls were added into control wells individually to obtain minimum or maximum inhibition values, respectively, for the assay signal window before the plates were incubated for ˜24 h at 37° C. This procedure produces conditioned media in each well which is tested for Aβ(1-42) levels in the ELISA detection step described next. The remaining cell cultures in each well are also tested for cell toxicity as described below.
Coating of ELISA assay plates was initiated by addition of 50 μL/well of an in-house Aβ(1-42) specific antibody at (3 μg/mL) in 0.1 M NaHCO3 (pH 9.0) into black 384-well Maxisorp® plates (Nunc) and incubated overnight at 4° C. The capture antibody was then aspirated from the ELISA assay plates and plates were washed either 2×100 uL with a Matrical Squirt plate washer, or 3×90 uL with a Thermo Combi, using Wash Buffer (Dulbecco's PBS, 0.05% Tween 20). 90 μL/well of Blocking Buffer (Dulbecco's PBS, 1.0% BSA (Sigma A7030) was then added to plates. Ambient temperature incubation was allowed to proceed for a minimum of 2 h. Blocking buffer was then removed and 20 μL/well Assay Buffer (Dulbecco's PBS, 1.0% BSA (Sigma A7030), 0.05% Tween 20) was then added. At this point, 35 uL (40 uL prior to August, 2012) (in duplicate) of experimental conditioned media (described above) were transferred into wells of the blocked ELISA plates containing the capture antibody, followed by overnight incubation at 4° C. Cell toxicity was also measured in the corresponding remaining cells after removal of the conditioned media for the Aβ(1-42) assay by a colorimetric cell proliferation assay (CellTiter 96® AQueous One Solution Cell Proliferation Assay, Promega) according to the manufacturer's instructions.
After overnight incubation of the ELISA assay plates at 4° C., unbound Aβ peptides were removed via either 2×100 uL washes with a Matrical Squirt plate washer, or 3×90 uL washes with a Thermo Combi, using Wash Buffer. Europium (Eu) labeled (custom labeled, PerkinElmer) Aβ(1-16) 6e10 Monoclonal Antibody (Covance #SIG-39320) was added, (50 μL/well Eu-6e10 @ 1:10,000, 20 uM EDTA) in Assay Buffer. […] Following 30 to 60 min ambient temperature incubation, the plates were read on an EnVision plate reader (PerkinElmer) using standard DELFIA TRF settings. […]

On to “2-[(7-chloro-6,8-dimethoxyquinolin-2- yl)methyl]-7-(4-methyl-1H-imidazol- 1-yl)-3,4-dihydro-2H-pyrido[1,2- a]pyrazine-1,6-dione [Example 87]”, for which the IC50 under setting [1] is 150 nM.
For `Cc1cn(-c2ccc3n(c2=O)CCN(CC2(c4ccc(Cl)cc4)CC2)C3=O)cn1` [Example 17, 2-{[1-(4-chlorophenyl)cyclopropyl]methyl}-7-(4-methyl-1H-imidazol-1-yl)-3,4-dihydro-2H-pyrido[1,2-a]pyrazine-1,6-dione, trifluoroacetate salt], the IC50 under setting [1] is 410 nM.
Turning to `Cc1cn(-c2ccc3n(c2=O)CCN(Cc2nc(C4(c5ccc(Cl)cc5)CCC4)no2)C3=O)cn1` [Example 18, 2-({3-[1-(4-chlorophenyl)cyclobutyl]-1,2,4-oxadiazol-5-yl}methyl)-7-(4-methyl-1H-imidazol-1-yl)-3,4-dihydro-2H-pyrido[1,2-a]pyrazine-1,6-dione, trifluoroacetate salt], the IC50 under setting [1] was 169 nM.
“2-[(4′-fluorobiphenyl-3-yl)methyl]- 7-(4-methyl-1H-imidazol-1-yl)- 3,4-dihydro-2H-pyrido[1,2- a]pyrazine-1,6-dione, formate salt [Example 12]”: the IC50 (Table 5, footnote 1: single determination, read-out: Aβ 42B IC50 (nM), IC50 value is from a single determination) worked out at 83.4 nM.

In general, IC50 refers to the concentration that inhibits the measured activity by half.
